Assay results: patent EP4617271A1, “PROTEOLYTIC CHIMERAS FOR THE TREATMENT OF A CANCER RELATED TO CERT” (Consejo Superior De Investigaciones Científicas - CSIC, priority 2024, dated 2025)

Key:
BT-474/WT cells = assay: Cell viability (MTT), sensitization to lapatinib, BT-474/WT; format: cell-based, human; conditions: 24 h; for sensitization to Lapatinib treatments: Protac 20 µM, lapatinib 0.63-30 µM; for CC50 vehicle /CC50 Protac ratio: lapatinib CC50 without vs with Protac 20 µM
Protocol: (§1) MDA-MB-231 cells were grown in DMEM media (Sigma) supplemented with 10% fetal bovine serum (FBS) (Sigma), 2 mM L-glutamine (Thermo Fisher) and 100 U/mL penicillin/ 100 ug/mL streptomycin (Thermo Fisher). MDA-MB-453 cells were grown in DMEM/F12 media (Gibco) supplemented with 10% fetal bovine serum (FBS) (Sigma), 2 mM L-glutamine (Thermo Fisher), 2.5 ug/mL amphotericin B and 100 U/mL penicillin/ 100 ug/mL streptomycin (Thermo Fisher). BT-474 cells were grown in DMEM/F12 media (Gibco) supplemented with 10% fetal bovine serum (FBS) (Sigma), 2 mM L-glutamine (Thermo Fisher), 10 ug/mL insulin, 2.5 ug/mL amphotericin B and 100 U/mL penicillin/ 100 ug/mL streptomycin (Thermo Fisher).
(§2) For cell proliferation assays, cells were plated at a density of 10,000 cells/well in a 96-well plate. […] MTT reagent was added to cell culture media. After 3 h incubation, culture medium was replaced by DMSO. MTT formazan crystals were solubilized in DMSO using a plate agitator for 30 min prior to reading absorbance at 570 nm with a SYNERGY H1 microplate reader (BioTek

BT-474/Lap cells = assay: Cell viability (MTT), sensitization to lapatinib, BT-474/Lap; format: cell-based, human; conditions: 24 h; for sensitization to Lapatinib treatments: Protac 20 µM, lapatinib 0.63-30 µM, shift of dose response curve vs vehicle; for CC50 vehicle /CC50 Protac ratio: lapatinib CC50 without vs with Protac 20 µM
Protocol: as §1, §2

MDA-MB-453/Lap cells = assay: Cell viability (MTT), sensitization to lapatinib, MDA-MB-453/Lap; format: cell-based, human; conditions: 24 h; for sensitization to Lapatinib treatments: Protac 10 µM, lapatinib 3-50 µM, shift of dose response curve vs vehicle; for change in viability: lapatinib 10 µM in the presence of Protac 10 µM; for CC50 vehicle /CC50 Protac ratio: lapatinib CC50 without vs with Protac 10 µM
Protocol: as §1, §2

CERT = target: T1, CERT (Homo sapiens, UniProt Q9Y5P4); assay: Degradation of CERT in cultured human breast cancer cells (SDS-PAGE and immunoblot); format: cell-based; conditions: for degradation of CERT / levels of CERT in cells: 24 h; for degradation of CERT: immunoblot vs DMSO
T1 construct: endogenous in cells; host or cells: MDA-MB-231, MDA-MB-453 (WT and lapatinib-resistant), BT-474 (WT and lapatinib-resistant)
T1 sequence (Q9Y5P4 1-624): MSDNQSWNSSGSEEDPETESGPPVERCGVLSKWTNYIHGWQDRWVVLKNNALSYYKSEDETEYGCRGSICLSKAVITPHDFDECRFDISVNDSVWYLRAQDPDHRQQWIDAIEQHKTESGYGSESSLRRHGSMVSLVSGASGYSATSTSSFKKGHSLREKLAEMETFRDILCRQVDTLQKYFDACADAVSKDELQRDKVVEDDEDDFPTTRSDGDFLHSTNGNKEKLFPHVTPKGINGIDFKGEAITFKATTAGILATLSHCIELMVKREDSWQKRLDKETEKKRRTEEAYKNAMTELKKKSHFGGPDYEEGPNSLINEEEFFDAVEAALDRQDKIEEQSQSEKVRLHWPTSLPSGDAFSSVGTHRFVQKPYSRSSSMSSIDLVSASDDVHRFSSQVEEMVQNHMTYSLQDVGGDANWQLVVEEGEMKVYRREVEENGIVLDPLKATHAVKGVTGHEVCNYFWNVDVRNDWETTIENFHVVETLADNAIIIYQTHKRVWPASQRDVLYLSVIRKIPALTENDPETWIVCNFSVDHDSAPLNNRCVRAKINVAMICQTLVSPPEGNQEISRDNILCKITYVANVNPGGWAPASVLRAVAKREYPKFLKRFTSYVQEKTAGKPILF
Protocol: as §1
Then, medium was removed and cells were washed with PBS, trypsinized and the pellets were disrupted by probe sonication in a 0.25 M solution of Saccharose. An aliquot was used for protein quantification and the same amount of protein per treatment was treated with laemli buffer (95 °C/5 min). The protein extracts were analyzed by SDS-PAGE electrophoresis followed by immunoblot using the following antibodies: CERT1, Abcam Ab72536; USP14, Cell signaling CS-11931; Actin, Abcam Ab5694.
Chimeras were tested in different types of breast cancer cell lines: • MDA-MB-231, lacking the estrogen receptor (ER), progesterone receptor (PR) and human epidermal growth factor receptor-2 (HER2).

MDA-MB-453/WT cells = assay: Cell viability (MTT), sensitization to lapatinib, MDA-MB-453/WT; format: cell-based, human; conditions: 24 h; for sensitization to Lapatinib treatments: Protac 10 µM, lapatinib 3-50 µM, shift of dose response curve vs vehicle; for change in viability: lapatinib 10 µM in the presence of Protac 10 µM; for CC50 vehicle /CC50 Protac ratio: lapatinib CC50 without vs with Protac 10 µM
Protocol: as §1, §2

[1] = BT-474 (WT) cells, 10 µM, 20 µM per Figure 1 legend
[2] = BT-474/Lap (lapatinib resistant) cells, 1, 5, 10, 20, 30 and 40 µM, immunoblot vs DMSO (Figure 6)
[3] = MDA-MB-453/Lap (lapatinib resistant) cells, 1, 5, 10, 20, 30 and 40 µM, immunoblot vs DMSO (Figure 4)
[4] = MDA-MB-231 cells, 10 µM, time course 2, 4, 6, 8, 16 and 24 h

Compound	sensitization to Lapatinib treatments (BT-474/WT cells)	CC50 vehicle /CC50 Protac ratio (BT-474/WT cells)	sensitization to Lapatinib treatments (BT-474/Lap cells)	CC50 vehicle /CC50 Protac ratio (BT-474/Lap cells)	sensitization to Lapatinib treatments (MDA-MB-453/Lap cells)	change in viability (MDA-MB-453/Lap cells)	CC50 vehicle /CC50 Protac ratio (MDA-MB-453/Lap cells)	degradation of CERT (CERT; [1])	levels of CERT in cells (CERT; [2])	degradation of CERT (CERT; MDA-MB-231 cells, 10 µM)	degradation of CERT (CERT; MDA-MB-453 (WT) cells, 10 µM)	levels of CERT in cells (CERT; [3])	sensitization to Lapatinib treatments (MDA-MB-453/WT cells)	change in viability (MDA-MB-453/WT cells)	CC50 vehicle /CC50 Protac ratio (MDA-MB-453/WT cells)	time of CERT degradation effect (CERT; [4])	time of maximum degradation (CERT; [4])
Cc1cc(C(=O)N2CCC(COC(=O)NCCOCCn3cc(CCCCCCCCC(=O)N[C@@H](CO)C[C@H](O)c4ccccc4)nn3)CC2)c(C)n1-c1ccc(F)cc1 [RBM3-413, (1-(1-(4-Fluorophenyl)-2,5-dimethyl-1H-pyrrole-3-carbonyl)piperidin-4-yl)methyl (2-(2-(4-(9-(((2R,4S)-1,4-dihydroxy-4-phenylbutan-2-yl)amino)-9-oxononyl)-1H-1,2,3-triazol-1-yl)ethoxy)ethyl)carbamate]	sensitized cells to lapatinib treatments	3.84	potent sensitization	5.56	potent sensitization	-38%	2.33	induced the degradation of CERT	treatments have reduced the levels of CERT in cells	induced the degradation of CERT	induced the degradation of CERT	treatments have reduced the levels of CERT in cells	Sensitization was also observed, yet mildly	-38%	1.98		
Cc1cc(C(=O)N2CCC(Cn3cc(CCCCCCCCC(=O)N[C@@H](CO)C[C@H](O)c4ccccc4)nn3)CC2)c(C)n1-c1ccc(F)cc1 [RBM3-395, N-((2R,4S)-1,4-Dihydroxy-4-phenylbutan-2-yl)-9-(1-((1-(1-(4-fluorophenyl)-2,5-dimethyl-1H-pyrrole-3-carbonyl)piperidin-4-yl)methyl)-1H-1,2,3-triazol-4-yl)nonanamide]	sensitized cells to lapatinib treatments	6.22	potent sensitization	5.23	potent sensitization	-38%	2.05	induced the degradation of CERT	treatments have reduced the levels of CERT in cells	induced the degradation of CERT	induced the degradation of CERT	treatments have reduced the levels of CERT in cells	Sensitization was also observed, yet mildly	-38%	2.27		
Cc1cc(C(=O)N2CCC(COC(=O)NCCOCCOCCn3cc(CCCCCCCCC(=O)N[C@@H](CO)C[C@H](O)c4ccccc4)nn3)CC2)c(C)n1-c1ccc(F)cc1 [RBM3-386, (1-(1-(4-Fluorophenyl)-2,5-dimethyl-1H-pyrrole-3-carbonyl)piperidin-4-yl)methyl (2-(2-(2-(4-(9-(((2R,4S)-1,4-dihydroxy-4-phenylbutan-2-yl)amino)-9-oxononyl)-1H-1,2,3-triazol-1-yl)ethoxy)ethoxy)ethyl) carbamate]								induced the degradation of CERT	treatments have reduced the levels of CERT in cells	induced the degradation of CERT	induced the degradation of CERT	treatments have reduced the levels of CERT in cells					
Cc1cc(C(=O)N2CCC(COC(=O)NCCOCCOCCOCCn3cc(CCCCCCCCC(=O)N[C@@H](CO)C[C@H](O)c4ccccc4)nn3)CC2)c(C)n1-c1ccc(F)cc1 [RBM3-368]								induced the degradation of CERT	treatments have reduced the levels of CERT in cells	induced the degradation of CERT	induced the degradation of CERT	treatments have reduced the levels of CERT in cells				16 to 24 h	24 h
Cc1cc(C(=O)N2CCC(COC(=O)NCCOCCOCCOCCOCCOCCn3cc(CCCCCCCCC(=O)N[C@@H](CO)C[C@H](O)c4ccccc4)nn3)CC2)c(C)n1-c1ccc(F)cc1 [RBM3-419, (1-(1-(4-Fluorophenyl)-2,5-dimethyl-1H-pyrrole-3-carbonyl)piperidin-4-yl)methyl (17-(4-(9-(((2R,4S)-1,4-dihydroxy-4-phenylbutan-2-yl)amino)-9-oxononyl)-1H-1,2,3-triazol-1-yl)-3,6,9,12,15-pentaoxaheptadecyl)carbamate]								induced the degradation of CERT	treatments have reduced the levels of CERT in cells	induced the degradation of CERT	induced the degradation of CERT	treatments have reduced the levels of CERT in cells					
